The subject of data set [1] is Candida albicans (local isolate). Kind of data set: Antimicrobial MIC, agar dilution. The note with it: for Minimum inhibitory concentration (MIC): Candida albicans (local isolate); for MIC: Candida albicans, read-out: Minimum inhibitory concentration (MIC). (Agar dilution tests growth on a series of plates holding different concentrations.)
Data set [2] has as its system PHA-stimulated splenocytes. Kind of data set: Proliferative response of PHA-stimulated splenocytes (MTT assay). It counts as cell-based. To be noted: for Stimulation Index (average ± SD): PHA 5 μg/ml, 72 hr, compounds at 5 μM (method says 10 μM), ratio of O.D. versus vehicle control. The protocol: Immunomodulatory effects of the synthesized curcumin conjugates on the proliferative response of PHA-stimulated splenocytes were evaluated. The effect of curcumin and its amino acid conjugates on splenocyte viability and proliferation in response to a T cell miotgen (Phytohaemagglutinin; PHA) was evaluated using the MTT assay. Freshly prepared splenocytes (1×10^6 cells/200 μl/well) were cultured in a 96-well U-bottom microtiter plate (Nunc) in complete medium. Cells were treated with tested compounds at a final concentration of 10 μM, vehicle (DMSO) or left untreated in triplicate then incubated at 37° C. and 5% CO2. When testing the immunoregulatory effects of the compounds on splenocyte stimulation, PHA (5 μg/ml) was added to the culture media to induce T cell proliferation. The proliferative response to PHA+vehicle and vehicle alone served as controls. After 72 hr, media were removed after pelleting the cells by centrifugation and MTT salt solution (5 mg/ml) was added into each well then incubated at 37° C. for 4 h. Afterwards, formazan crystals were dissolved by adding 150 μl 10% sodium dodecyl sulfate (SDS). Absorbance was measured with a spectrophotometer at 570 nm and reference wavelength of 690 nm.
Splenocyte stimulation index was determined as the ratio of O.D. values in tested compounds versus vehicle control cultures.

Data set [3] relates to lipopolysaccharide-stimulated peritoneal macrophages. In words: Production of nitric oxide by lipopolysaccharide-stimulated peritoneal macrophages (Greiss reagent). More on the design: Potency (%): % inhibition of nitric oxide production relative to lipopolysaccharide-stimulated macrophages: concentration or dose not given beside the values. The data set is classed as cell-based. The note with it: LPS-stimulated peritoneal macrophages; for Nitric oxide (nitrite) concentration, μM (average ± SD): 24 h, nitrite by Greiss reagent. The procedure: The effects of the synthesized curcumin conjugates on the production of nitric oxide (μM) by lipopolysaccharide-stimulated peritoneal macrophages were evaluated.
Two milliliters of macrophage cells were seeded in 12-well tissue culture plates in nitrite-free medium supplemented with 0.1% bovine serum albumin and incubated at 37° C. LPS±epinephrine, norepinephrine, or dopamine at […] concentrations was added to some wells. The concentrations of LPS used ranged from 0.5 to 10 ng/ml. After incubation for 24 h, supernatants were collected for measuring nitric oxide (NO) by spectrophotometry. The production of NO was determined from the accumulation of nitrite (NO2), the metabolic end product of NO metabolism, in the medium using the Greiss reagent. About equal volumes (100 μl) of sample and Greiss reagent (1:1 mixture of 1% sulfanilamide in 5% phosphoric acid, and 0.1% a-naphthylamine in distilled water) were mixed and incubated at room temperature for 15 min, and absorbance was measured at 532 nm on a spectrophotometer.

Data set [4] relates to Salmonella typhi ATCC19430. Kind of data set: Antimicrobial MIC, agar dilution. The note with it: Salmonella enterica, read-out: Minimum inhibitory concentration (MIC). It counts as cell-based.
The subject of data set [5] is HCT116 (colon) carcinoma cell line. Kind of data set: Anti-tumor properties, MTT. It counts as cell-based. The note with it: Homo sapiens, HCT-116, 72 h. The protocol:
(§1) Anti-tumor properties of curcumin conjugates were evaluated. The synthesized curcumin-amino acid conjugates and curcumin itself were screened for their antitumor properties against human tumor cell lines utilizing HepG2 (hepatocellular), MCF7 (breast), and HCT116 (colon) carcinoma cell lines by the standard mitochondrial dependent reduction of yellow MTT [3-(4,5-dimethylthiazol-2-yl)-2,5-diphenyl-tetrazolium bromide] to purple formazan technique. Cancer cells were obtained from the Egyptian Company for Production of Vaccines, Sera and Drugs (VACSERA), Cairo, Egypt. Media, chemicals and supplies for the bio-assay were obtained from Biowest, Gibco and Lonza Companies. Cells were suspended in RPMI-1640 medium for HepG2, DMEMF12 for MCF-7, and DMEM for HCT116 in addition to 1% antibiotic-antimycotic mixture (10 […] potassium penicillin, 10 […] streptomycin sulfate and […] amphotericin B), 10% fetal bovine serum and 1% L-glutamine at 37° C., under 5% CO2 and 95% humidity. Cells were seeded at a concentration of 10×10^3 cells per well in fresh complete growth medium in 96-well tissue culture microtiter plates for 24 h. Media was aspirated, 180 μL fresh medium (without serum) were added and cells were incubated with different concentrations of sample to give a final concentration of 100 μM. 0.5% DMSO was used as a negative control and doxorubicin was used as a positive control (standard reference). Triplicate wells were prepared for each individual tested compound/dose. After 72 h of incubation, the medium was aspirated, 40 μL MTT salt (2.5 mg ml^1) were added to each well and incubated for an additional 4 h at 37° C. To stop the reaction and dissolve the formed crystals, 200 μL of 10% sodium dodecyl sulfate (SDS) in deionized water were added to each well and incubated overnight at 37° C. The absorbance was then measured at 595 nm with a reference wavelength of 620 nm. Data were collected as mean values for experiments performed in triplicates for each compound which had been measured by MTT assay.
(§2) The percentage of cell survival was calculated according to equation (4): […]
(§3) The IC50 was determined using Graph-Pad PRISM version-5 software. Statistical calculations for determination of the mean and standard deviation (SD) values were determined by SPSS 16 software.

The test system of data set [6] is HepG2 (hepatocellular) carcinoma cell line. Kind of data set: Anti-tumor properties, MTT. To be noted: Homo sapiens, 72 h. The data set is classed as cell-based. The procedure: as §1, §2, §3
The subject of data set [7] is MCF7 (breast) carcinoma cell line. Kind of data set: Anti-tumor properties, MTT. The data set is classed as cell-based. The note with it: Homo sapiens, 72 h. The protocol:
as §1, §2, §3

In a further data set the test system is MCF-7 cells. Kind of data set: Effect on doxorubicin induced cytotoxicity (MTT). The procedure:
The effects of curcumin conjugates on doxorubicin induced cytotoxicity were evaluated. In order to further examine whether curcumin derivatives can enhance conventional chemotherapeutic agents, MCF-7 cells were treated with 100 μM curcumin derivatives alone or in combination with 10 μM doxorubicin (DOX) for 48 hr. Control cultures received only medium, vehicle (DMSO), or vehicle+DOX. The percentage of viable cells was determined by MTT assay according to equation (5): […]

Data set [8] relates to Staphylococcus aureus ATCC25923. Kind of data set: Antimicrobial MIC, agar dilution.
Data set [9] deals with Streptococcus pyogenes ATCC19615. In words: Antimicrobial MIC, agar dilution.
For data set [10], the system named is Pseudomonas aeruginosa ATCC27853. In words: Antimicrobial MIC, agar dilution.
The subject of a further data set is gastric mucosa. Kind of data set: Ulcerogenic liability (ulcer index). It counts as in vivo, albino mice. The protocol: The ulcerogenic liability was investigated in albino mice using the standard method. […] The animals were fasted 18 h before drug administration. […] The control group animals were given saline solution only with few drops of Tween 80. […] The gastric mucosa was examined with a magnifying lens (10×) for the presence of lesions and erosions.
1. percentage incidence of ulcer divided by 10;
2. average number of ulcers per stomach; and
3. average severity of ulcers;

Setting [11] is: both, albino, mouse, in vivo, po, 10 mg/kg, 3 days.
[12] abbreviates: orally, three successive days, 10 mg/kg indomethacin mol equivalent.

Values after ≈ are worked out from the molar mass of the structure shown. Where two headings read alike, the source gives them in different places.

As to `C[C@@H]1[C@H](O)[C@@H](C)/C=C/C=C/C=C/C=C/C=C/C=C/C=C/[C@H](O[C@@H]2O[C@H](C)[C@@H](O)[C@H](N)[C@@H]2O)C[C@@H]2O[C@](O)(C[C@@H](O)C[C@@H](O)[C@H](O)CC[C@@H](O)C[C@@H](O)CC(=O)O[C@H]1C)C[C@H](O)[C@H]2C(=O)O` [Amphotericin B, reference compound], the “Minimum inhibitory concentration (MIC)” value is 0.39 µg/mL (≈ 0.422 µM) in data set [1] (37° C., 18 h) and “(0.422) μM” in data set [1] (value in brackets).
With “Phytohaemagglutinin [PHA, reference compound]”, the “Stimulation Index (average ± SD)” value in data set [2] was found to be 2.78 ± 0.28. For the same compound, the “splenocyte proliferation, fold relative to untreated control cells” value in [2] (in the presence of PHA, text of b265) stood at 2.76 fold.
Turning to “lipopolysaccharide [LPS, reference compound]”, in data set [3], the “Potency (%): % inhibition of nitric oxide production relative to lipopolysaccharide-stimulated macrophages” value was 0.00% and the “Nitric oxide (nitrite) concentration, μM (average ± SD)” value turned out to be 27.31 ± 2.56 µM.
Regarding `COc1cc(/C=C/C(=O)CC(=O)/C=C/c2ccc(OC(=O)[C@@H](NC(=O)OCc3ccccc3)C(C)C)c(OC)c2)ccc1OC(=O)[C@@H](NC(=O)OCc1ccccc1)C(C)C` [Cbz-Val-Cur, ((1E,6E)-3,5-dioxohepta-1,6-diene-1,7-diyl)bis(2-methoxy-4,1-phenylene) (2S,2′S)-bis(2-(((benzyloxy)carbonyl)amino)-3-methylbutanoate)], in data set [2], the “Stimulation Index (average ± SD)” value was determined as 2.87 ± 0.11. Moreover, the “Potency (%): % inhibition of nitric oxide production relative to lipopolysaccharide-stimulated macrophages” value in [3] is listed as 5.68%. Also, the “Nitric oxide (nitrite) concentration, μM (average ± SD)” value in [3] was 25.76 ± 0.99 µM. The MIC in data set [4] (18 h) is 0.125 µg/mL; in [4] it was 0.15 µM; in [8] (ATCC25923, 18 h, read-out: Minimum inhibitory concentration (MIC)), 0.125 µg/mL; in [8] (ATCC25923, read-out: Minimum inhibitory concentration (MIC)), 0.15 µM; in data set [9] (ATCC19615, 18 h, read-out: Minimum inhibitory concentration (MIC)), 0.5 µg/mL; in data set [9] (ATCC19615, read-out: Minimum inhibitory concentration (MIC)), 0.599 µM. Moreover, the MIC in data set [10] (ATCC27853, 18 h, read-out: Minimum inhibitory concentration (MIC)) amounted to 0.25 µg/mL; in data set [10] (ATCC27853, read-out: Minimum inhibitory concentration (MIC)) it was 0.299 µM; in data set [1] (18 h), 1 µg/mL; in data set [1], 1.2 µM. Further, the activity at 100 µM in data set [5] (HCT116, 100 μM, read-out: Percentage growth of tumor cell lines treated with the tested compounds (±SD)) amounted to 112 ± 7.9%; in data set [6] (HepG2, 100 μM, read-out: Percentage growth of tumor cell lines treated with the tested compounds (±SD)), 92.4 ± 2.8%; in data set [7] (MCF7, 100 μM, read-out: Percentage growth of tumor cell lines treated with the tested compounds (±SD)) it was 85%. In addition, the “Percentage of viable cells MCF-7 (average ± SD)” value with MCF-7 cells (10 μM DOX in combination with 100 μM curcumin derivative, 48 hr) was determined as 49.68 ± 1.46. The viability at 100 µM in the data set with MCF-7 cells (Homo sapiens, MCF7, 48 h, read-out: Percentage of viable cells MCF-7 (average ± SD)) stood at 99.2 ± 2.15%.
As for `COc1ccc2c(c1)c(CC(=O)O)c(C)n2C(=O)c1ccc(Cl)cc1` [Indomethacin, 2-(1-(4-chlorobenzoyl)-5-methoxy-2-methyl-1H-indol-3-yl)acetic acid, reference compound], in the data set with gastric mucosa (setting [11]), the “% Incidence of ulcer divided by 10” value was found to be 10, the “Average of ulcer number” value worked out at 2 and the “Number of animals with ulcer” value is given as 6/6. In addition, in the data set with gastric mucosa (setting [12]), the “Average severity of ulcer” value is 1.67. For the same compound, in the data set with gastric mucosa (sum of the three values, orally, three successive days, 10 mg/kg indomethacin mol equivalent), the Ulcer index is reported as 13.67.
For the compound `CC(C)Cc1ccc(C(C)C(=O)O)cc1` (centres unmarked) [Ibuprofen, 2-(4-isobutylphenyl)propanoic acid, reference compound], in the data set with gastric mucosa (setting [11]), the “Average of ulcer number” value amounted to 0.33, the “Average severity of ulcer” value was 0.67 and the “Number of animals with ulcer” value is reported as 2/6. For the same compound, the “% Incidence of ulcer divided by 10” value in the data set on gastric mucosa (setting [12]) is recorded as 3.33.
A word on the IC50: it is the concentration at which inhibition is half-maximal. As for `COc1cccc2c1C(=O)c1c(O)c3c(c(O)c1C2=O)C[C@@](O)(C(=O)CO)C[C@@H]3O[C@H]1C[C@H](N)[C@H](O)[C@H](C)O1` [DOX, doxorubicin, reference compound], the concentration for half-maximal inhibition (IC50) in [5] (HCT116, MTT, read-out: IC50) was 7.17 µM; in data set [6] (HepG2, MTT, read-out: IC50) it was 34.2 µM; in data set [7] (MCF7, MTT, read-out: IC50), 20.9 µM. In addition, the viability at 10 µM with MCF-7 cells (Homo sapiens, MCF7, 48 h, read-out: Percentage of viable cells MCF-7 (average ± SD), 10 μM DOX in combination with 100 μM curcumin derivative, 48 hr) stood at 44.8%. For the same compound, the “Percentage of viable cells MCF-7 (average ± SD)” value with MCF-7 cells (human, 48 h, 100 μM) is 0 ± 0.00.

The values above are taken from US10660967B2, “Curcumin conjugates and methods of use thereof” (priority 2016, dated 2020).
